Measured values published in patent publication US20100279941A1, “CD36 MODULATION AND USES THEREOF” (priority 2009, published 2010).

Legend:
[1] = Plasma cholesterol, triglyceride, NEFA and glycemia after myocardial ischaemia-reperfusion; format: in vivo, mice; settings: for Triglyceride / Glycemia Post-Reperfusion / Total Cholesterol / Glycemia Before Ischemia: 300 μg/kg/day for 2 weeks; for Triglyceride: mean ± S.E.M.; for Glycemia Post-Reperfusion / Total Cholesterol / Glycemia Before Ischemia: mean ± S.E.M. (n)
Excerpt: Animals. CD36^−/− mice were generated by targeted homologous recombination and backcrossed six times to C57BI/6. Wild-type control littermates (CD36^+/+) were bred from the same cross and were therefore of identical genetic background [Febbraio et al., 2000]. Male mice, aged 23 (±1) weeks, were used for experiments. They were fed standard chow (#5075, Charles Rivers, Saint-Constant, Québec, Canada) and water ad libitum, and housed singly during treatment periods (2 or 10 weeks). Daily pharmacological treatments with 300 μg/kg of EP 80317 or CP1A(IV) or vehicle (0.9% NaCl) were done by subcutaneous (s.c.) injections.
Experimental model of IHD: Transient left coronary artery ligation in vivo. Mice were subjected to a transient LCAL surgery as described before, with minor modifications [Tarnayski et al., 2004]. Mice were injected i.p. with buprenorphine (0.05 mg/kg) and placed in an induction chamber with inhalation anesthesia comprised of 3% isoflurane mixed with 100% oxygen. Mice were intubated with a blunt ended 20-gauge catheter into the trachea via the mouth and mechanically ventilated at a tidal volume of 7 ml/kg at 130 respirations/min with a MiniVent™ mouse ventilator (model 845, Harvard Apparatus, Saint-Laurent, QC, Canada). Anesthesia was maintained with 1.5-2% isoflurane and the animals were kept warm using electrical heating pads during the surgical procedure. The chest was opened by a horizontal incision through the skin and muscle layers at the third intercostal space exposing the left side of the heart. […] Visual blanching distal to the coronary occlusion confirmed myocardial ischaemia. Lidocaine (6 mg/kg) was administered i.p. just following occlusion and prior to reperfusion. After 30 minutes, the PE10 tubing was removed allowing reperfusion. The lungs were reinflated and the chest wound closed layer by layer before extubation. […] Hearts were immediately frozen at −80° C. unless otherwise stated. […]
Plasma and tissue assays. Plasma insulin, triglyceride (TG) and NEFA levels were measured as previously described [Menard et al., 2009]. In vitro lipolysis was prevented by collecting blood in the presence of 40 mM Orlistat (Calbiochem, San Diego, Calif., USA) and centrifuging rapidly. Plasma and tissue lipids were extracted according to the method described by Folch et al. [Folch et al., 1957]. The non-metabolized fraction of [^18F]-FTHA in plasma was determined using thin-layer chromatography from blood samples taken 2, 3, 5, 10, and 30 min after FTHA injection, and the metabolite corrected plasma curve was calculated by linear interpolation and used to correct the plasma input function (modified from [Ci et al., 2006]). Myocardial mitochondria were extracted with measurement of GDH activity to correct for extraction efficiency [Menard et al., 2009].

Akt = assay: Western blot of left ventricle: phosphorylated Akt to total Akt; format: in vivo, mice
Description: Experimental model of IHD: Transient left coronary artery ligation in vivo. Mice were subjected to a transient LCAL surgery as described before, with minor modifications [Tarnayski et al., 2004]. Mice were injected i.p. with buprenorphine (0.05 mg/kg) and placed in an induction chamber with inhalation anesthesia comprised of 3% isoflurane mixed with 100% oxygen. Mice were intubated with a blunt ended 20-gauge catheter into the trachea via the mouth and mechanically ventilated at a tidal volume of 7 ml/kg at 130 respirations/min with a MiniVent™ mouse ventilator (model 845, Harvard Apparatus, Saint-Laurent, QC, Canada). Anesthesia was maintained with 1.5-2% isoflurane and the animals were kept warm using electrical heating pads during the surgical procedure. The chest was opened by a horizontal incision through the skin and muscle layers at the third intercostal space exposing the left side of the heart. […] Visual blanching distal to the coronary occlusion confirmed myocardial ischaemia. Lidocaine (6 mg/kg) was administered i.p. just following occlusion and prior to reperfusion. After 30 minutes, the PE10 tubing was removed allowing reperfusion. The lungs were reinflated and the chest wound closed layer by layer before extubation. […] Hearts were immediately frozen at −80° C. unless otherwise stated.
Western blot analysis. Total ventricular protein lysates were prepared as described previously [Bodart et al., 2002]. Left ventricles were homogenized in PBS containing a protease inhibitor cocktail (Roche Applied Science, Indianapolis, Ind., USA) and 1 mM sodium orthovanadate. Homogenates were incubated for 10 min on ice with an equal volume of lysis buffer (NaCl 300 mM, Tris-HCl 100 mM, 2% Triton X-100, 0.2% SDS, 50 mM NaF, 4 mM EDTA, 1 mM sodium orthovanadate and protein inhibitors, pH=7.5), and centrifuged at 14,000 g for 30 minutes at 4° C. The protein concentration of the su pernatant was determined by the bicinchoninic acid (BCA) protein assay (Pierce Biotechnology, Rockford, Ill., USA). Equal amounts (50 or 100 μg) of protein extracts were separated on 10% SDS-polyacrylamide gels and transferred electrophoretically to polyvinylidene difluoride (PVDF) membranes (Bio-Rad Laboratories, Hercules, Calif., USA) for immunoblotting. […] Antibody binding was detected by enhanced chemiluminescence using an alpha Imager™ (Alpha Innotech Corporation, San Leandro, Calif., USA). Quantification of the digital images obtained was performed using ImageQuant™ 5.2 software (Molecular Dynamics, Sunnyvale, Calif., USA).

[2] = 6 h post-reperfusion, CD36^+/+ mice
[3] = 6 h post-reperfusion, CD36^−/− mice
[4] = 48 h post-reperfusion, CD36^+/+ mice
[5] = 48 h post-reperfusion, CD36^−/− mice

**Q.** Which results are given for “HAIC-2MeDTrp-DLys-Trp-DPhe-Lys-NH2 [EP 80317]”?
**A.** effect on plasma TG ([1]; 6 or 48 hours following reperfusion, both CD36^+/+ and CD36^−/− mice, in words): did not modulate; attenuation of plasma NEFA elevation ([1]; 6 hours after reperfusion, CD36-dependent (CD36^+/+ mice), p<0.05 vs vehicle): 29%; Triglyceride [1, 2]: 0.35 ± 0.04 mmol/L; Glycemia Post-Reperfusion [1, 2]: 13.6 ± 1.2 (20) mmol/L; Total Cholesterol [1, 2]: 1.4 ± 0.3 (4) mmol/L; Triglyceride [1, 3]: 0.58 ± 0.16 mmol/L; Glycemia Post-Reperfusion [1, 3]: 8.8 ± 0.6 (17) mmol/L; Total Cholesterol [1, 3]: 1.9 ± 0.1 (5) mmol/L; effect on plasma NEFA levels ([1]; 48 hours after reperfusion, in words): no effect; Triglyceride [1, 4]: 0.44 ± 0.03 mmol/L; Total Cholesterol [1, 4]: 1.5 ± 0.03 (6) mmol/L; Triglyceride [1, 5]: 0.55 ± 0.06 mmol/L; Total Cholesterol [1, 5]: 2.5 ± 0.2 (4) mmol/L; Glycemia Before Ischemia ([1]; CD36^+/+ mice): 10.6 ± 0.4 (15) mmol/L; Glycemia Before Ischemia ([1]; CD36^−/− mice): 9.3 ± 0.5 (8) mmol/L; increase of P-Akt to total Akt band density ratio (Akt; 6 hours reperfusion, CD36^+/+ mice, p<0.01): 57%; effect on P-Akt/Akt ratio (Akt; 6 hours reperfusion, CD36^−/− mice, in words): no effect; increase of P-Akt/Akt density ratio (Akt; 48 hours reperfusion, CD36^+/+ mice, p<0.01): 89%; effect on Akt phosphoprotein signal (Akt; 48 hours reperfusion, genotype not printed in the sentence (FIG. 7D), in words): no significant effect
